From article PMC12716163 (Nanoscale, 2024)

How the values were obtained:
[1] = target: PSMA (Homo sapiens, UniProt Q04609); details: irreversible inhibitor; cited from earlier work
[2] = Aqueous solubility; type: physicochemical
[3] = target: c-Met (Homo sapiens, UniProt P08581); assay: c-Met inhibition IC50; type: biochemical; details: read-out: c-Met inhibitory activity IC50
[4] = tested on: PC3-PIP PSMA (+) cells; assay: CellTiter-Glo cell viability; type: cell-based, human; details: 72 H, equivalent drug bases

c-Met, sequence (P08581 25-1390): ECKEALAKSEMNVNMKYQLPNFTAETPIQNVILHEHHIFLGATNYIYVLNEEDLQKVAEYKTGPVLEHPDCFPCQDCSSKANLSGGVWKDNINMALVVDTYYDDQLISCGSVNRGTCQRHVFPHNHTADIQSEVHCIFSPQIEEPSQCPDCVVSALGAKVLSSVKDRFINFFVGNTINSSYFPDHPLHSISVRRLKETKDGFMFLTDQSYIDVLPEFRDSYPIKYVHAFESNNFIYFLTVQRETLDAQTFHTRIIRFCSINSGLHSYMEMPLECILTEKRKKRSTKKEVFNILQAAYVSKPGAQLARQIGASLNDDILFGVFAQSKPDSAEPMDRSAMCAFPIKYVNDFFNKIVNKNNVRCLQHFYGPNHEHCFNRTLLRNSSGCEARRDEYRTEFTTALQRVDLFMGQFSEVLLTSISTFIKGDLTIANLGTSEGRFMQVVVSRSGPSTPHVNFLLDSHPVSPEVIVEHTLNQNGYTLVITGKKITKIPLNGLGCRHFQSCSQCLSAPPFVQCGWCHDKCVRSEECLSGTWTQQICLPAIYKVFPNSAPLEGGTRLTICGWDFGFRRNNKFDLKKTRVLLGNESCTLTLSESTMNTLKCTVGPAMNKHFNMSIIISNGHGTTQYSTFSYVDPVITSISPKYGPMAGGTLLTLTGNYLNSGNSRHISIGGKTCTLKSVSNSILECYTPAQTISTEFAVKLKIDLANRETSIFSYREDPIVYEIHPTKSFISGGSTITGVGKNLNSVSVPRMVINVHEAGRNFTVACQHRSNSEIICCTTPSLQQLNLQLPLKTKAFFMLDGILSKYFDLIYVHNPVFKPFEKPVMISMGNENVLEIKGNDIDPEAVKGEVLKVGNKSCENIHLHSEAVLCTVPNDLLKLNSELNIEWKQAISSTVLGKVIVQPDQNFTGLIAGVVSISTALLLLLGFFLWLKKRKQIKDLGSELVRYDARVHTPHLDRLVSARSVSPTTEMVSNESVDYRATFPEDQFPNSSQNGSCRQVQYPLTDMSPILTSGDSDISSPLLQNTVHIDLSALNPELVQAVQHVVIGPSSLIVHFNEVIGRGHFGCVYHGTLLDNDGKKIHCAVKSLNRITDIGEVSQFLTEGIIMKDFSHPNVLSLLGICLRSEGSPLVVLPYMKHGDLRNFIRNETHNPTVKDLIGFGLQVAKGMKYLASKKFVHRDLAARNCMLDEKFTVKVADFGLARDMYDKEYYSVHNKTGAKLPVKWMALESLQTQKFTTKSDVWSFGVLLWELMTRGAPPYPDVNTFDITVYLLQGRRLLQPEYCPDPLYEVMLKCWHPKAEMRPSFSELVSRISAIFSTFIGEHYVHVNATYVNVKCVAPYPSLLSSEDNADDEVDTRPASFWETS
PSMA, sequence (Q04609 whole entry): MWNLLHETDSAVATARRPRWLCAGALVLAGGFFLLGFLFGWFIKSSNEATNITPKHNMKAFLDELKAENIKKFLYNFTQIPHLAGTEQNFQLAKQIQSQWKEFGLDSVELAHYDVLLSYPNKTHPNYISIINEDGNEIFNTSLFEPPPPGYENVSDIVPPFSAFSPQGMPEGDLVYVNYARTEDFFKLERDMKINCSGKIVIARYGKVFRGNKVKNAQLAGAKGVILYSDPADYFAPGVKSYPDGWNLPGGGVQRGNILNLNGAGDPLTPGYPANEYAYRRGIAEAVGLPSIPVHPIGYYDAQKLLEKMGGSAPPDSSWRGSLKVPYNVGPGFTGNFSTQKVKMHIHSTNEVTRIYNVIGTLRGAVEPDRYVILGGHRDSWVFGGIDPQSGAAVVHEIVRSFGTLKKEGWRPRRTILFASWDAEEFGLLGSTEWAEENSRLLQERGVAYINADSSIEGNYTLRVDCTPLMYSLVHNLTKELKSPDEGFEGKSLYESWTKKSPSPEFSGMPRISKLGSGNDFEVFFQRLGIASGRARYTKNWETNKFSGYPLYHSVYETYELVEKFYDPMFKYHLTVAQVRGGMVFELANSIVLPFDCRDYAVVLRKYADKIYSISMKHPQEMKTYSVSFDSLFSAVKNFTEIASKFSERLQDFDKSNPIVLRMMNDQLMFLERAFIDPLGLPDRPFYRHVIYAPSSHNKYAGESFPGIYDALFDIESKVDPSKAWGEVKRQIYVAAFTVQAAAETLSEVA

Compound | PSMA affinity [1] | aqueous solubility [2] | IC50 [3] | anti-proliferative IC50 [4]
O=C(O)CC[C@H](NP(=O)(O)OCCC[C@H](NC(=O)CC[C@H](NC(=O)CCCCCNC(=O)c1ccc(F)cc1)C(=O)O)C(=O)O)C(=O)O [CTT 1057] | nanomolar affinity | – | – | –
COc1cc2nccc(Oc3ccc(NC(=O)C4(C(=O)Nc5ccc(F)cc5)CC4)cc3)c2cc1OC [Cabo, cabozantinib, reference compound] | – | poor aqueous solubility | – | –
COc1cc2c(Oc3ccc(NC(=O)C4(C(=O)Nc5ccc(F)cc5)CC4)cc3)ccnc2cc1O [Cabo-OH] | – | poor aqueous solubility | 26.3 nM | 77.30 ± 4.35 µg/mL
